According to paper PMC11589458, “Development of bombesin-tubulysin conjugates using multicomponent chemistry to functionalize both the payload and the homing peptide” (Frontiers in Pharmacology, 2024):
Where two headings read alike, the source gives them in different places. Peptide text beside a SMILES is read from it. * marks the point of attachment. X1 = CCCO[C@H](C[C@H](C(C)C)N(CC(=O)NCCC(C)(C)SSCCC(=O)*)C(=O)[C@@H](NC(=O)[C@H]1CCCCN1C)[C@@H](C)CC)c1nc(C(=O)N[C@@H](Cc2ccccc2)C[C@H](C)C(=O)O)cs1; X2 = CCCO[C@H](C[C@H](C(C)C)N(CC(=O)NCCSSCCC(=O)*)C(=O)[C@@H](NC(=O)[C@H]1CCCCN1C)[C@@H](C)CC)c1nc(C(=O)N[C@@H](Cc2ccccc2)C[C@H](C)C(=O)O)cs1

Columns and labels:
[1] = test system: PC-3 (prostate cancer) cells; type: cell-based, human; settings: 6 h
Procedure: (§1) [formula] Scheme 1 (A) Solid-phase synthesis of tubugi analogs functionalized with a thiol group at the internal amide N-substituent. WR = Wang resin. (B) Evaluation of the anti-proliferative activity: tubugi effects on cell viability, as determined by a resazurin assay for human prostate cancer PC-3 cells and human colon cancer HCT-116 cells treated for 48 h with tubugi 10a (red dots and line) and tubugi 10b (blue triangles and line). For control and data normalization, cells were routinely treated in parallel with 0.5% (v/v) DMSO (negative control), and as a positive cytotoxicity control with 100 µM digitonin (for data normalization set to 0% cell viability), both in standard growth medium.
(§2) The actual GRPR expression levels of these cell lines were checked by conducting RT-qPCR, as described in the SI. […] The cell viability and proliferation assays were carried out by using a resazurin-based fluorometric assay. The cells were exposed to the bombesin conjugates 20, 21, and 22 for initial 6 h and 48 h, and regardless of the initial incubation time, the cells were then allowed to grow until 72 h in sum were finalized, after which the cell viability was determined (see the SI).
FIGURE 2 (A) Relative human GRPR (mRNA) expression levels in the cell lines used for the flow cytometry and cell viability studies, as detected by using RT-qPCR (n = 3). Data were analyzed by conducting the ΔΔCt methodology using GAPDH as a reference gene and normalized to the GRPR expression level of non-cancerous MCF-10A breast cells as a “healthy” cell reference (set to 1.0). […] (B–D) Cell viability of human cancer (T-47D, PC-3, MDA-MB-231, and HCT-116) and non-cancer (MCF-10A) cell lines after 6 h initial treatment with the bombesin-tubugi conjugates 20 (normal disulfide), 21 (hindered disulfide), and 22 (hindered disulfide and lipidated), medium exchange and subsequent cell cultivation until finalization of 72 h, and subsequent measurement by using fluorometric resazurin assay read-out. […] Each data point was determined with 3-4 biological replicates, each with technical triplicates. […]

[2] = test system: MCF-10A (non-cancer, healthy breast epithelium) cells; experiment: Resazurin cell viability assay, MCF-10A; type: cell-based, human; settings: for fold higher IC50 in GRPR-lowest expressing healthy MCF-10A than in higher GRPR-expressing cancer cells: compared with T-47D (20) or T-47D and PC-3 (21); for IC50: MCF-10A
Procedure: as §2
(§3) FIGURE 2 (A) Relative human GRPR (mRNA) expression levels in the cell lines used for the flow cytometry and cell viability studies, as detected by using RT-qPCR (n = 3). Data were analyzed by conducting the ΔΔCt methodology using GAPDH as a reference gene and normalized to the GRPR expression level of non-cancerous MCF-10A breast cells as a “healthy” cell reference (set to 1.0). Statistical significance was tested by using an unpaired t-test (*p < 0.05). (B–D) Cell viability of human cancer (T-47D, PC-3, MDA-MB-231, and HCT-116) and non-cancer (MCF-10A) cell lines after 6 h initial treatment with the bombesin-tubugi conjugates 20 (normal disulfide), 21 (hindered disulfide), and 22 (hindered disulfide and lipidated), medium exchange and subsequent cell cultivation until finalization of 72 h, and subsequent measurement by using fluorometric resazurin assay read-out. For control and data normalization, cells were routinely treated in parallel with 0.5% (v/v) DMSO (negative control), and as a positive cytotoxicity control with 100 µM digitonin (for data normalization set to 0% cell viability), both in standard growth medium. Each data point was determined with 3-4 biological replicates, each with technical triplicates. The indicated concentrations are IC50 values as calculated based on the non-linear regression dose-response curves as drawn by using GraphPad Prism 8 software. Error bars indicate the 95% confidence interval. TEXT PRINTED IN THE PICTURE: (B) 20: T-47D (HR+ breast cancer) 594.2 nM (95% CI: 475.2 - n.d. nM); PC-3 (prostate cancer) 695.3 nM (95% CI: 595.6 - n.d. nM); MDA-MB-231 (TNBC) 626.8 nM (95% CI: 430.4 - n.d. nM); HCT-116 (colon cancer) 1,315 nM (95% CI: n.d. - 6,114 nM); MCF-10A (healthy breast) ~ 3,200 nM (95% CI: n.d.) | (C) 21: T-47D (HR+ breast cancer) 740.9 nM (95% CI: 598.2 - 950.1 nM); PC-3 (prostate cancer) 716.4 nM (95% CI: 529.4 - 997.2 nM); MDA-MB-231 (TNBC) 357.0 nM (95% CI: n.d. - 606.4 nM); HCT-116 (colon cancer) ~ 2,000 nM (95% CI: n.d.); MCF-10A (healthy breast) ~ 4,000 nM (95% CI: n.d.) | (D) 22: T-47D (HR+ breast cancer) 70.9 nM (95% CI: 39.3 - 122.4 nM); PC-3 (prostate cancer) 110.7 nM (95% CI: 66.4 - 116.8 nM); MDA-MB-231 (TNBC) 87.8 nM (95% CI: 83.3 - 148.4 nM)

[3] = test system: HCT-116 (colon cancer) cells; experiment: Resazurin cell viability / anti-proliferation assay, HCT-116; type: cell-based, human; settings: for fold higher IC50 in GRPR-lower expressing HCT-116 than in higher GRPR-expressing cancer cells: compared with T-47D (20) or T-47D and PC-3 (21); for IC50: HCT-116
Procedure: as §1, §2, §3

[4] = test system: MDA-MB-231 (TNBC) cells; type: cell-based, human; settings: 6 h
Procedure: as §2
(§4) FIGURE 2 (A) Relative human GRPR (mRNA) expression levels in the cell lines used for the flow cytometry and cell viability studies, as detected by using RT-qPCR (n = 3). Data were analyzed by conducting the ΔΔCt methodology using GAPDH as a reference gene and normalized to the GRPR expression level of non-cancerous MCF-10A breast cells as a “healthy” cell reference (set to 1.0). Statistical significance was tested by using an unpaired t-test (*p < 0.05). (B–D) Cell viability of human cancer (T-47D, PC-3, MDA-MB-231, and HCT-116) and non-cancer (MCF-10A) cell lines after 6 h initial treatment with the bombesin-tubugi conjugates 20 (normal disulfide), 21 (hindered disulfide), and 22 (hindered disulfide and lipidated), medium exchange and subsequent cell cultivation until finalization of 72 h, and subsequent measurement by using fluorometric resazurin assay read-out. For control and data normalization, cells were routinely treated in parallel with 0.5% (v/v) DMSO (negative control), and as a positive cytotoxicity control with 100 µM digitonin (for data normalization set to 0% cell viability), both in standard growth medium. Each data point was determined with 3-4 biological replicates, each with technical triplicates. The indicated concentrations are IC50 values as calculated based on the non-linear regression dose-response curves as drawn by using GraphPad Prism 8 software. Error bars indicate the 95% confidence interval. TEXT PRINTED IN THE PICTURE: (B) 20: T-47D (HR+ breast cancer) 594.2 nM (95% CI: 475.2 - n.d. nM); PC-3 (prostate cancer) 695.3 nM (95% CI: 595.6 - n.d. nM); MDA-MB-231 (TNBC) 626.8 nM (95% CI: 430.4 - n.d. nM); HCT-116 (colon cancer) 1,315 nM (95% CI: n.d. - 6,114 nM); MCF-10A (healthy breast) ~ 3,200 nM (95% CI: n.d.) | (C) 21: T-47D (HR+ breast cancer) 740.9 nM (95% CI: 598.2 - 950.1 nM); PC-3 (prostate cancer) 716.4 nM (95% CI: 529.4 - 997.2 nM); MDA-MB-231 (TNBC) 357.0 nM (95% CI: n.d. - 606.4 nM); HCT-116 (colon cancer) ~ 2,000 nM (95% CI: n.d.); MCF-10A (healthy breast) ~ 4,000 nM (95% CI: n.d.) | (D) 22: T-47D (HR+ breast cancer) 70.9 nM (95% CI: 39.3 - 122.4 nM); PC-3 (prostate cancer) 110.7 nM (95% CI: 66.4 - 116.8 nM); MDA-MB-231 (TNBC) 87.8 nM (95% CI: 83.3 - 148.4 nM) […]
(§5) Figure S50. Cell viability of human cancer (T-47D, PC-3, MDA-MB-231) and non-cancer (184B5) cell lines after 6 h initial treatment with the bombesin-tubugi conjugate 22 and its non-conjugated tubugi payload 10b, medium exchange and subsequent cell cultivation until finalization of 72 h, and subsequent measurement by using fluorometric resazurin assay read-out. Each data point was determined in at least 3-4 biological replicates each with technical triplicates. The indicated concentrations are IC50 values as calculated based on the non-linear regression dose-response curves as drawn by using GraphPad Prism 8 software. Error bars indicate the 95% confidence interval.
(§6) (1 picture or pasted object on this page, not shown here)

[5] = test system: T-47D (HR+ breast cancer) cells; type: cell-based, human; settings: 6 h
Procedure: as §2, §4, §5, §6

[6] = test system: 184B5 (healthy breast) cells; settings: 6 h
[7] = test system: T-47D, PC-3 and MDA-MB-231 cells; experiment: Resazurin cell viability assay, the three GRPR-overexpressing cancer cell lines taken together; type: cell-based, human; settings: 6 h initial treatment
[8] = as above; type: cell-based, human; settings: 6 h initial treatment; read-out: selectivity: fold higher cytotoxicity for GRPR-overexpressing cells than for healthy 184B5 cells
[9] = 6 h initial treatment, read-out: IC50
[10] = 6 h initial treatment, medium exchange, cultivation until 72 h, fluorometric resazurin read-out, 3-4 biological replicates, technical triplicates, read-out: IC50

For CCCO[C@H](C[C@H](C(C)C)N(CC(=O)NCCSSCCC(=O)NCCCC[C@H](N)C(=O)N[C@@H](CC(N)=O)C(=O)N[C@@H](CCC(N)=O)C(=O)N[C@@H](Cc1c[nH]c2ccccc12)C(=O)N[C@@H](C)C(=O)N[C@H](C(=O)NCC(=O)N[C@@H](Cc1c[nH]cn1)C(=O)N[C@@H](CC(C)C)C(=O)N[C@@H](CCSC)C(N)=O)C(C)C)C(=O)[C@@H](NC(=O)[C@H]1CCCCN1C)[C@@H](C)CC)c1nc(C(=O)N[C@@H](Cc2ccccc2)C[C@H](C)C(=O)O)cs1 [compound 20] (H-K(X2)NQWAVGHLM-NH2), which IC50 [1] is on record?
Its IC50 is 695 nM.

What about the “fold higher IC50 in GRPR-lowest expressing healthy MCF-10A than in higher GRPR-expressing cancer cells” value ([2]; 6 h initial treatment) of the same compound?
The value was ~5.5 fold.

And the IC50 [2, 9]?
Its IC50 is ~3200 nM.

What about the IC50 ([2]; 48 h initial treatment) of the same compound?
The IC50 was “nanomolar range”.

What about the “fold higher IC50 in GRPR-lower expressing HCT-116 than in higher GRPR-expressing cancer cells” value ([3]; 6 h initial treatment) of the same compound?
The value was “approximately 2 fold”.

And the IC50 [3, 10]?
The IC50 was 1320 nM.

And the IC50 [3, 9]?
Its IC50 is ~1300 nM.

What about the IC50 ([3]; 48 h initial treatment) of the same compound?
The IC50 was “nanomolar range”.

And the IC50 [4]?
Its IC50 is 627 nM.

What does the source list for CCCO[C@H](C[C@H](C(C)C)N(CC(=O)NCCC(C)(C)SSCCC(=O)NCCCC[C@H](N)C(=O)N[C@@H](CC(N)=O)C(=O)N[C@@H](CCC(N)=O)C(=O)N[C@@H](Cc1c[nH]c2ccccc12)C(=O)N[C@@H](C)C(=O)N[C@H](C(=O)NCC(=O)N[C@@H](Cc1c[nH]cn1)C(=O)N[C@@H](CC(C)C)C(=O)N[C@@H](CCSC)C(N)=O)C(C)C)C(=O)[C@@H](NC(=O)[C@H]1CCCCN1C)[C@@H](C)CC)c1nc(C(=O)N[C@@H](Cc2ccccc2)C[C@H](C)C(=O)O)cs1 [compound 21] (H-K(X1)NQWAVGHLM-NH2)?
IC50 [1]: 716 nM; fold higher IC50 in GRPR-lowest expressing healthy MCF-10A than in higher GRPR-expressing cancer cells ([2]; 6 h initial treatment): ~5.5 fold; IC50 [2, 10]: ~4000 nM; IC50 ([2]; 48 h initial treatment): nanomolar range; fold higher IC50 in GRPR-lower expressing HCT-116 than in higher GRPR-expressing cancer cells ([3]; 6 h initial treatment): approximately 2.5 fold; IC50 [3, 10]: ~2000 nM; IC50 ([3]; 48 h initial treatment): nanomolar range; IC50 [5]: 741 nM; IC50 [4]: 357 nM

For CCCCCCCCCCCCCCNC(=O)CN(CCCC[C@H](N)C(=O)N[C@@H](CC(N)=O)C(=O)N[C@@H](CCC(N)=O)C(=O)N[C@@H](Cc1c[nH]c2ccccc12)C(=O)N[C@@H](C)C(=O)N[C@H](C(=O)NCC(=O)N[C@@H](Cc1c[nH]cn1)C(=O)N[C@@H](CC(C)C)C(=O)N[C@@H](CCSC)C(N)=O)C(C)C)C(=O)CCSSC(C)(C)CCNC(=O)CN(C(=O)[C@@H](NC(=O)[C@H]1CCCCN1C)[C@@H](C)CC)[C@H](C[C@@H](OCCC)c1nc(C(=O)N[C@@H](Cc2ccccc2)C[C@H](C)C(=O)O)cs1)C(C)C [compound 22], which IC50 [1] is on record?
Its IC50 is 111 nM.

What about the IC50 [6] of the same compound?
Its IC50 is 392 nM.

And the IC50 ([7]; T-47D, PC-3, MDA-MB-231, read-out: IC50 (range over cell lines))?
The IC50 was 70 to 110 nM.

What about the “fold more potent than the non-lipidated conjugates 20 and 21” value ([7]; three cancer cells overexpressing the GRPR) of the same compound?
The value was 4- to 10 fold.

And the selectivity ratio [8]?
The selectivity ratio was 3.5 to 5.5.

And the IC50 [5]?
The IC50 was 70.9 nM.

And the IC50 [4]?
The IC50 was 87.8 nM.
